Data on 1 compound can be found in patent publication US20230398125A1, “TREATING HEPATITIS” (Albireo AB, priority 2022, published 2023).

Like-named read-outs stand apart in the source and are kept apart here.

Test [1] relates to HBV (genotype D). In words: In vitro HBV infection of NTCP-HepG2 cells, second study (HBeAg, HBc). It is filed as cell-based, hepatitis B virus. Particulars: for IC50: Hepatitis B virus. The procedure: In a second study, recombinant HBV (genotype D) was produced in vitro as described in the literature (König et al. 2014). […] The myr-preS12-48 peptide (500 nM, genotype D) was used as control inhibitor. All infection experiments were performed in NTCP-HepG2 cells cultured in HGM in the presence of the corresponding compounds with different concentrations, 4% PEG-8000 (Sigma-Aldrich, Darmstadt, Germany), 2% DMSO (Carl Roth, Karlsruhe, Germany) and 100 ng/ml EGF (PeproTech, Hamburg, Germany) as final concentration each. Recombinant HBV was diluted in HGM to a final concentration of 2.5×10^10 HBV-genome copies per well (7×10^8 IU per well) and was added to the cells for 6 h. Subsequently, cells were washed with HGM and cultured in HGM supplemented with 2% DMSO. Medium was changed every 2-3 days until cells were fixed at day 9 p.i. with 3.8% paraformaldehyde (Sigma-Aldrich) in PBS, for 30 min at RT. The cells were immunostained at 37° C. for 1 h (1:400 dilution). For detection of HBV core (HBc) protein expression, a polyclonal anti-HBc antiserum from an immunized guinea pig (1:500 dilution, Eurogentec, Seraing, Belgium) was used as primary antibody and an Alexa Fluor 488-conjugated goat anti-guinea-pig-IgG-antibody (1:400 dilution, Thermo Fisher Scientific) as secondary antibody. Nuclei were stained with DAPI (0.5 μg/ml, Thermo Fisher Scientific). […] HBV-infected cells secrete the soluble HBeAg, which is a widely-accepted quantitative marker for productive HBV infection in cell culture experiments. In this study, HBeAg secreted from infected cells into the cell culture supernatant was determined of supernatant collected from day 5 to 9 p.i. using the Architect HBeAg assay, an automated in vitro diagnostic system (Abbott Laboratories, Wiesbaden, Germany).
Determination of IC50 values was done by nonlinear regression analysis using the equation log(inhibitor) vs. response settings of the GraphPad Prism 6.0 software (GraphPad). Data of [^3H]TC transport and [^3H]preS1 binding are expressed as means±SD from quadruplicate determinations. […]

For test [2], the target named is T1, Mouse IBAT (Mus musculus, UniProt P70172).
T1 construct: expressed in transfected cells; kept under puromycin selection
T1 sequence (P70172 1-348): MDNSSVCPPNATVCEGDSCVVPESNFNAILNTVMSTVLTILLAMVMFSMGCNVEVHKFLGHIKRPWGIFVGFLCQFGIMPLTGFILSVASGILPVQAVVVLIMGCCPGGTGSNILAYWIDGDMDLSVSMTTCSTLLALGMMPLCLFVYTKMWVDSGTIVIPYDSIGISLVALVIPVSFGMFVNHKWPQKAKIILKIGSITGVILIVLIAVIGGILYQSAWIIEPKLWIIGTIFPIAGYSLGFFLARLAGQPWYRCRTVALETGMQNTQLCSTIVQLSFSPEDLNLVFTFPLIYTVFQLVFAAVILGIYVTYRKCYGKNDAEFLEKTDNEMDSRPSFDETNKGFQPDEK
Nature of the test: 3H-taurocholic acid uptake in mouse IBAT-overexpressing cells. It is filed as cell-based. The conditions noted are these: 3H-taurocholic acid transport. The procedure:
10,000 cells (Human & Mouse IBAT-overexpressing cells) were seeded in 96-wells plate in 100 μL MEM-alpha medium supplemented with 10% FBS containing puromycin (10 μg/mL) and incubated at 37° C. in 5% CO2 for 48 hrs. After incubation media was decanted from the wells, cells were washed two times with 250 μL of basal MEM-alpha medium (FBS-free). After each wash, plates were tapped against paper towel to ensure maximum removal of residual media. Test inhibitor dilutions (highest test concentration being 10 μM, 3-fold serial dilution, 10 concentrations) prepared in DMSO were added to the incubation mix (maintaining 0.2% final DMSO concentration) containing 0.25 μM ^3H-taurocholic acid and 5 μM of cold taurocholic acid. […]
After incubation, the reaction was stopped by keeping the plates on ice water mix for 2-3 minutes and then the incubation mix was aspirated completely from the wells. […] 100 μL of MicroScint-20 was added to the wells and kept overnight at room temperature before reading the plates in MicroBeta2 liquid Scintillation Counter from PerkinElmer under ^3H Test for I/L-BAT protocol (set at 120 seconds reading time per well, with normal plate orientation).
Percentage inhibitions were calculated with respect to the assay controls. […]

For `CCCCC1CN(c2ccccc2)c2cc(SC)c(O/C=C(\F)C(=O)O)cc2S(=O)(=O)N1C` (stereo not shown) [Compound 1, (Z)-3-((3-butyl-2-methyl-7-(methylthio)-1,1-dioxido-5-phenyl-2,3,4,5-tetrahydro-1,2,5-benzothiadiazepin-8-yl)oxy)-2-fluoroacrylic acid], the IC50 amounted to 16.1 nM in test [1] (read-out: IC50 in vitro HBV infection (HBc)), 19.1 nM in test [1] (read-out: IC50 in vitro HBV infection (HBeAg)) and 40.8 ± 4.6 nM in test [2]. Moreover, the “HBeAg secretion relative to cut off value” in test [1] (second study, highest inhibitor concentration 1000 nM) is given as “above the cut off value”.

In general, IC50 refers to the point on the concentration scale where inhibition reaches its midpoint.
